Reference: PubChem BioAssay AID1963839 (Molecular Pharmacology Branch, DTP, NCI, 2024)
pIC50: −log10 of the molar value.

Test system: 817829-284-R-J1-PDC complex spheroid viability
Test: Anticancer human tumor 817829-284-R-J1-PDC patient-derived colon adenocarcinoma cell line growth inhibition [POLQ]
Details: for pIC50: curve of first compound; for viability, T/C: stronger effect = lower value; active = viability on the fitted dose curve at most 10% of control; inactive = the rest
Summary of the method: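 Complex spheroid viability model combining PDC tumour cells with endothelial (HUVEC) and MSC stromal cells. Novobiocin, ART-558 or RP6685 were tested singly and in combination with standard and investigational anticancer drugs. Each was titrated in half-log steps from near clinical Cmax, or from 10 microM where Cmax was unknown.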

[1] = second compound 0.0316 µM, first compound 0.0316 µM
[2] = second compound 0.0316 µM, first compound 0.1 µM
[3] = second compound 0.0316 µM, first compound 0.316 µM
[4] = second compound 0.0316 µM, first compound 1 µM
[5] = second compound 0.0316 µM, first compound 3.16 µM
[6] = second compound 0.0316 µM, first compound 10 µM
[7] = second compound 0.1 µM, first compound 0.0316 µM
[8] = second compound 0.1 µM, first compound 0.1 µM
[9] = second compound 0.1 µM, first compound 0.316 µM
[10] = second compound 0.1 µM, first compound 1 µM
[11] = second compound 0.1 µM, first compound 3.16 µM
[12] = second compound 0.1 µM, first compound 10 µM
[13] = second compound 0.316 µM, first compound 0.0316 µM
[14] = second compound 0.316 µM, first compound 0.1 µM
[15] = second compound 0.316 µM, first compound 0.316 µM
[16] = second compound 0.316 µM, first compound 1 µM
[17] = second compound 0.316 µM, first compound 3.16 µM
[18] = second compound 0.316 µM, first compound 10 µM
[19] = second compound 1 µM, first compound 0.0316 µM
[20] = second compound 1 µM, first compound 0.1 µM
[21] = second compound 1 µM, first compound 0.316 µM
[22] = second compound 1 µM, first compound 1 µM
[23] = second compound 1 µM, first compound 3.16 µM
[24] = second compound 1 µM, first compound 10 µM
[25] = second compound 3.16 µM, first compound 0.0316 µM
[26] = second compound 3.16 µM, first compound 0.1 µM
[27] = second compound 3.16 µM, first compound 0.316 µM
[28] = second compound 3.16 µM, first compound 1 µM
[29] = second compound 3.16 µM, first compound 3.16 µM
[30] = second compound 3.16 µM, first compound 10 µM
[31] = second compound 10 µM, first compound 0.0316 µM
[32] = second compound 10 µM, first compound 0.1 µM
[33] = second compound 10 µM, first compound 0.316 µM
[34] = second compound 10 µM, first compound 1 µM
[35] = second compound 10 µM, first compound 3.16 µM
[36] = second compound 10 µM, first compound 10 µM
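Also: spheroids exposed to compounds for 7 days.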
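For viability, T/C in this document: 100% = DMSO vehicle-treated spheroids.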

COc1ccc([C@@H](O)c2cc(-c3ncnc4cc(N5CCOCC5)ccc34)c(F)cc2Cl)nn1 + Nc1ccc(C#CCN(C(=O)Cc2ncc(C(F)(F)F)cc2C(F)(F)F)c2ccc(F)cc2)nn1
5.92: pIC50 (second compound 0.0316 µM) | pIC50 (second compound 0.316 µM)
inactive: viability, T/C [1] 109% | viability, T/C [2] 85.4% | viability, T/C [3] 85% | viability, T/C [4] 52% | viability, T/C [5] 28.9% | viability, T/C [6] 17.7% | viability, T/C [7] 121% | viability, T/C [8] 89.8% | viability, T/C [9] 63.5% | viability, T/C [10] 42.4% | viability, T/C [11] 33.9% | viability, T/C [12] 23.3% | viability, T/C [13] 96.8% | viability, T/C [14] 83.2% | viability, T/C [15] 77.9% | viability, T/C [16] 55.3% | viability, T/C [17] 27.9% | viability, T/C [18] 20.7% | viability, T/C [19] 98.3% | viability, T/C [20] 86.8% | viability, T/C [21] 71.8% | viability, T/C [22] 46.5% | viability, T/C [23] 32.1% | viability, T/C [24] 19.1% | viability, T/C [25] 103% | viability, T/C [26] 86% | viability, T/C [27] 65% | viability, T/C [28] 55.2% | viability, T/C [29] 34.2% | viability, T/C [30] 20.9% | viability, T/C [31] 106% | viability, T/C [32] 74.3% | viability, T/C [33] 56.5% | viability, T/C [34] 39.1% | viability, T/C [35] 28.5% | viability, T/C [36] 16%
6.34: pIC50 (second compound 10 µM)
6.15: pIC50 (second compound 0.1 µM)
6.03: pIC50 (second compound 1 µM)
5.95: pIC50 (second compound 3.16 µM)

COc1ccc([C@@H](O)c2cc(-c3ncnc4cc(N5CCOCC5)ccc34)c(F)cc2Cl)nn1 + COC1C(OC(N)=O)C(O)C(Oc2ccc3c(O)c(NC(=O)c4ccc(O)c(CC=C(C)C)c4)c(=O)oc3c2C)OC1(C)C
6.17: pIC50 (second compound 0.0316 µM)
inactive: viability, T/C [1] 111% | viability, T/C [2] 61.9% | viability, T/C [3] 76.9% | viability, T/C [4] 44.5% | viability, T/C [5] 22.8% | viability, T/C [6] 11.9% | viability, T/C [7] 117% | viability, T/C [8] 79.6% | viability, T/C [9] 68.8% | viability, T/C [10] 55% | viability, T/C [11] 26.6% | viability, T/C [12] 18.5% | viability, T/C [13] 98.7% | viability, T/C [14] 86% | viability, T/C [15] 58.4% | viability, T/C [16] 53.9% | viability, T/C [17] 25.5% | viability, T/C [18] 18.9% | viability, T/C [19] 102% | viability, T/C [20] 88.8% | viability, T/C [21] 89.4% | viability, T/C [22] 49.2% | viability, T/C [23] 25.9% | viability, T/C [24] 18.9% | viability, T/C [25] 97.1% | viability, T/C [26] 86% | viability, T/C [27] 59.6% | viability, T/C [28] 34.2% | viability, T/C [29] 22.3% | viability, T/C [30] 16% | viability, T/C [31] 135% | viability, T/C [32] 62.2% | viability, T/C [33] 80% | viability, T/C [34] 43.9% | viability, T/C [35] 27.4% | viability, T/C [36] 16.2%
6.30: pIC50 (second compound 3.16 µM)
6.10: pIC50 (second compound 0.316 µM)
5.98: pIC50 (second compound 0.1 µM)
6.00: pIC50 (second compound 1 µM)
6.24: pIC50 (second compound 10 µM)

CNCc1ccc(-c2[nH]c3cc(F)cc4c3c2CCNC4=O)cc1 + Cc1cccc(N(C)C(=O)C2C(O)CCN2c2nc(C)cc(C(F)(F)F)c2C#N)c1
5.65: pIC50 (second compound 0.0316 µM)
5.57: pIC50 (second compound 1 µM)
5.12: pIC50 (second compound 0.1 µM)
5.48: pIC50 (second compound 3.16 µM)
5.47: pIC50 (second compound 0.316 µM)
inactive: viability, T/C [1] 87.5% | viability, T/C [2] 67.2% | viability, T/C [3] 68.4% | viability, T/C [4] 58.2% | viability, T/C [5] 49.9% | viability, T/C [6] 33.9% | viability, T/C [7] 74.9% | viability, T/C [8] 67.8% | viability, T/C [9] 86.7% | viability, T/C [10] 60.4% | viability, T/C [11] 74.7% | viability, T/C [12] 43% | viability, T/C [13] 97.8% | viability, T/C [14] 76.5% | viability, T/C [15] 70.5% | viability, T/C [16] 66.6% | viability, T/C [17] 53.7% | viability, T/C [18] 36.3% | viability, T/C [19] 104% | viability, T/C [20] 71.9% | viability, T/C [21] 86.4% | viability, T/C [22] 55.9% | viability, T/C [23] 51.8% | viability, T/C [24] 33.1% | viability, T/C [25] 82.4% | viability, T/C [26] 54.2% | viability, T/C [27] 79.1% | viability, T/C [28] 77.9% | viability, T/C [29] 50.9% | viability, T/C [30] 30.3% | viability, T/C [31] 70.9% | viability, T/C [32] 78.1% | viability, T/C [33] 67.1% | viability, T/C [34] 62.5% | viability, T/C [35] 55.6% | viability, T/C [36] 31.4%
5.42: pIC50 (second compound 10 µM)
